Measured values: paper PMC3806745, “Selective Inhibition of Matrix Metalloproteinase-9 Attenuates Secondary Damage Resulting from Severe Traumatic Brain Injury” (PLoS ONE, 2013)
Read-outs that look alike come from different tables or passages of the source.

Assays:
MMP-9 [1] = molecular target: MMP-9 (Mus musculus, UniProt P41245); assay: Gelatin zymography of cortical tissue after TBI; format: in vivo; settings: TBI mice, 25 mg/kg/day i.p. for 7 days, 7 days post-trauma, vs vehicle
Method: (§1) All animal procedures were performed under the compliance with protocol approval by the University of Missouri Animal Care and Use Committee, which is in accordance with the National Institutes of Health Guide for the Care and Use of Laboratory Animals. The TBI procedure employed an EM impactor for CCI and was conducted as previously described. A total of 86 mice were used in this study. Briefly, 8–10 week-old adult male C57BL/6J mice (The Jackson Laboratory, Bar Harbor, ME) weighing 20–25 g were anesthetized with 2.0% gaseous isoflurane in a nitrogen/oxygen mixture inside a sealed anesthesia chamber. Each mouse was then stably placed on a Kopf stereotaxic apparatus (David Kopf Instruments, Tujunga, CA). Body temperature was monitored with a rectal thermistor probe (TH-10Kmp, Cell MicroControls, Norfolk, VA), and maintained at a constant 37°C on a silicon heating pad (HS-3×2.5 Heater, Cell MicroControls, Norfolk, VA). […]
Gelatinase activity in brain homogenates was determined by gelatin zymography as described previously, [16]. […] Bound material was released from the beads using 10% DMSO in TBS, and samples were analyzed by electrophoresis in a 10% SDS-PAGE gel containing 0.1% gelatin under non-reducing conditions, followed by incubation overnight at 37°C in 50 mM Tris buffer, pH 8, with 5 mM CaCl2, 200 mM NaCl, and 0.02% Brij 35. […]

[2] = tested on: TBI mouse model (EM impactor CCI); assay: Brain lesion volume in cresyl violet-stained sections after TBI (stereology, WSI); format: in vivo; settings: TBI mice, 25 mg/kg i.p. for 7 days
Method: All animal procedures were performed under the compliance with protocol approval by the University of Missouri Animal Care and Use Committee, which is in accordance with the National Institutes of Health Guide for the Care and Use of Laboratory Animals. The TBI procedure employed an EM impactor for CCI and was conducted as previously described. A total of 86 mice were used in this study. Briefly, 8–10 week-old adult male C57BL/6J mice (The Jackson Laboratory, Bar Harbor, ME) weighing 20–25 g were anesthetized with 2.0% gaseous isoflurane in a nitrogen/oxygen mixture inside a sealed anesthesia chamber. Each mouse was then stably placed on a Kopf stereotaxic apparatus (David Kopf Instruments, Tujunga, CA). Body temperature was monitored with a rectal thermistor probe (TH-10Kmp, Cell MicroControls, Norfolk, VA), and maintained at a constant 37°C on a silicon heating pad (HS-3×2.5 Heater, Cell MicroControls, Norfolk, VA). Following a midline skin incision and removal of connective tissue under sterile conditions, a 5.0 mm diameter craniotomy was performed in the left parietotemporal skull using a pedal-operated high-speed micro-drill mounted on the stereotaxic arm. A 5.0-mm diameter bone disc was then removed to expose the left cortex, while keeping the dura mater intact. A MATLAB-controlled EM impactor (MyNeuroLab Stereotaxic Impactor, St. Louis, MO) with a 3.0-mm diameter tip was centered at 2.7 mm to the left of the midline suture and 3.0 mm rostral to lambda, at an angle of 15° with the vertical. Once the position was set, the EM impactor delivered a CCI with a velocity of 5.0 m/s and dwell time of 100 ms, at a depth of 2.5 mm. This operation produces a moderately severe contusion in the left parietotemporal cortex and the underlying hippocampus as marked by pronounced behavioral deficits, but virtually no mortality. Following impact, the original skull disc was placed back over the exposed cortex, and the incision was sutured. Each mouse was released from anesthesia and placed in an empty cage over a heating pad for recovery. All efforts were made to minimize animal suffering. For sham control mice used in the study, only the craniotomy was performed. […] Mice were observed daily for the duration of the study (7 or 30 days). For design of the 30-day long term study, animals in each group were double-blinded and randomly assigned into two different tissue process procedures after behavioral testing–mouse brains were either fixed and sectioned for histopathological evaluation, or freshly dissected and then frozen at −80°C for later analysis, reflecting the difference of the animal numbers mentioned in the legends of Figures 7 and 8.
At 7 or 30 days after TBI, mice were sacrificed and brains were processed for histochemical staining and assessment of brain lesion volumes using the stereology technique as described, [45]. Briefly, mice were sacrificed at appropriate experimental time points and transcardially perfused with 4% paraformaldehyde in 100 mM phosphate buffer (PB) and brains were dissected. […] Every 5th section was mounted on poly-L-lysine coated glass slides and stained with cresyl violet to quantify brain lesion volumes and examine neuronal cell death.
Systematic evaluation of a large number of histological specimens in an unbiased manner requires high-speed imaging tools for the supervised analysis of pathological assessment to reduce quantitative variations. […]

[3] = Regional brain distribution of SB-3CT and p-OH SB-3CT after repeated i.p. SB-3CT; format: in vivo, mouse; settings: mice; for Conc, whole brain: 10 minutes after the last i.p. dose of SB-3CT (25 mg/kg at 0, 2, 24 h)
Method: (§3) Under anesthesia, terminal blood was collected in heparin tubes through the posterior vena cava at various time points after the last dose, and tubes were centrifuged to collect plasma. Whole brain samples were harvested after transcardiac perfusion with saline and immediately flash frozen in liquid nitrogen and stored at −80°C until analysis. […] At 10 minutes after the last dose, whole brain samples were rapidly dissected into different regions (cortex, striatum, hippocampus, cerebellum and brain stem), and immediately frozen in dry ice.
(§4) A 75-µL aliquot of plasma was mixed with 150 µL of internal standard in acetonitrile. The sample was centrifuged at 10,000×g for 10 minutes. Brain samples were weighed and homogenized for 5 minutes in one volume equivalent of cold acetonitrile, containing an internal standard, using a bullet blender (Next Advance, Inc., Averill Park, NY). For regional brain distribution, the striatum, hippocampus, cerebellum and brain stem samples were pooled from 3 different mice for analysis.
The homogenates were centrifuged twice at 20,000×g for 20 minutes at 4°C. […] Quantification was performed using peak area ratios relative to the internal standard and linear regression parameters were calculated from the calibration curve standards prepared in blank mouse plasma (and blank brain). The internal standard used in all of the analyses was N-(4-(4-((thiiran-2-ylmethyl)sulfonyl)phenoxy)phenyl)methanesulfonamide [43], which was analyzed by MRM using the transition 398→261. The chromatographic, MRM conditions, and method validation were the same as previously described [17].

[4] = tested on: TBI mouse model (EM impactor CCI); assay: Neurons with dendrites, NeuN/MAP2 immunohistochemistry after TBI; format: in vivo; settings: TBI mice, 25 mg/kg i.p. for 7 days; 7 days after TBI
Method: as §1
(§2) Fluorescence immunohistochemistry was carried out as described, [16], [19]. For each brain analyzed, coronal sections were chosen near the center of the craniotomy (Bregma −1.50 mm) and adjacent to a section stained with cresyl violet for comparison. […]

[5] = Plasma and brain levels and pharmacokinetics of SB-3CT and p-OH SB-3CT after repeated i.p. SB-3CT (UPLC/ESI-MRM); settings: mice
Method: as §3, §4
(§5) The homogenates were centrifuged twice at 20,000×g for 20 minutes at 4°C. […] Quantification was performed using peak area ratios relative to the internal standard and linear regression parameters were calculated from the calibration curve standards prepared in blank mouse plasma (and blank brain). The internal standard used in all of the analyses was N-(4-(4-((thiiran-2-ylmethyl)sulfonyl)phenoxy)phenyl)methanesulfonamide [43], which was analyzed by MRM using the transition 398→261.
(§6) Pharmacokinetic parameters were calculated as follows. The area under the mean concentration-time curve up to the last quantifiable sampling time (AUC 0–last) was calculated by the trapezoidal rule using the pharmacokinetic software PK Solutions (Version 2.0, Summit Research Services, Montrose, CO). The AUC-time curve from time zero to infinity (AUC 0–∞), representing systemic exposure of a therapeutic agent in the body, was calculated as AUC 0–last+(C last/k), where C last is the concentration at the last quantifiable sampling time and k is the elimination rate constant. Half-lives (t ½α and t ½β) were estimated from the linear segment of the initial or terminal portion of the concentration-time data by linear regression, where the slope of the line was the rate constant k and t ½ = ln 2/k.

[6] = tested on: TBI mouse model (EM impactor CCI); assay: Barnes maze after TBI; format: in vivo; settings: TBI mice, 25 mg/kg i.p. for 7 days
Method: as §1, with “VA). Following a midline skin incision and removal of connective tissue under sterile conditions, a 5.0 mm diameter craniotomy was performed in the left parietotemporal skull using a pedal-operated high-speed micro-drill mounted on the stereotaxic arm. A 5.0-mm diameter bone disc was then removed to expose the left cortex, while keeping the dura mater intact.” for “VA).”

[7] = tested on: TBI mouse model (EM impactor CCI); assay: Microglial activation and astrogliosis, CD11b/GFAP immunofluorescence after TBI; format: in vivo; settings: TBI mice, SB-3CT treatment for 7 days; 7 days post-trauma
Method: as §1, §2

[8] = mouse, in vivo, ip, 25 mg/kg
Method: as §3, §4, §5, §6

[9] = cited from earlier work
[10] = tested on: TBI mouse model (EM impactor CCI); assay: Beam-walking test after TBI; format: in vivo; settings: TBI mice, 25 mg/kg i.p. for 7 days
MMP-9 [11] = settings: cited from earlier work
[12] = 10 minutes after the last i.p. dose of SB-3CT
[13] = repeated 25 mg/kg i.p. SB-3CT (0, 2, 24 h), 10 min after last dose
[14] = repeated 25 mg/kg i.p. SB-3CT, 10 min after last dose
[15] = repeated 25 mg/kg i.p. SB-3CT, 20 min after last dose
[16] = repeated 25 mg/kg i.p. SB-3CT, 30 min after last dose
[17] = repeated 25 mg/kg i.p. SB-3CT, 60 min after last dose
[18] = repeated 25 mg/kg i.p. SB-3CT, 90 min after last dose
[19] = repeated 25 mg/kg i.p. SB-3CT, 120 min after last dose
[20] = repeated 25 mg/kg i.p. SB-3CT, 180 min after last dose

Chain of MMP-9 (Mus musculus, UniProt P41245) (P41245 108-730): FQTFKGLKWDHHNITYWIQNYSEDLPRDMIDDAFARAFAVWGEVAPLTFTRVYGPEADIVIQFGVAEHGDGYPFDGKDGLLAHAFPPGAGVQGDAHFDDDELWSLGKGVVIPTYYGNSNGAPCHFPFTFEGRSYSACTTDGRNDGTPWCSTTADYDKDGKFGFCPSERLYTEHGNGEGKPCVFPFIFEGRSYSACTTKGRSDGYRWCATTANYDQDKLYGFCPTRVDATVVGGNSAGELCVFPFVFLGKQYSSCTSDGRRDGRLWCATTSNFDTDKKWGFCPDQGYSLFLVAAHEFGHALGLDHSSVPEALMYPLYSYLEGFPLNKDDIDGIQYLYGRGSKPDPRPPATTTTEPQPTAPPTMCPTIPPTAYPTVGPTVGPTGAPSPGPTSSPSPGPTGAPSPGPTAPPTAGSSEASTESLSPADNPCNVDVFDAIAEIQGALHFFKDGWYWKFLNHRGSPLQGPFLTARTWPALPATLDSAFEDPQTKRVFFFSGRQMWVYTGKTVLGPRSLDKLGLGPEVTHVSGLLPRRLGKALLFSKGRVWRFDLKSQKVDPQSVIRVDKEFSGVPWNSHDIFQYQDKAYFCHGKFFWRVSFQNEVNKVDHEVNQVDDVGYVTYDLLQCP

O=S(=O)(CC1CS1)c1ccc(Oc2ccccc2)cc1 (stereo not shown) [SB-3CT]
Levels of proMMP-9 and active MMP-9 in lesioned cortex (gelatin zymography, densitometry) (MMP-9 [1]): attenuated | Reduction in brain damage (cortical lesion volume) vs vehicle ([2]; 7 days post-trauma): ~14% | Cortical lesion volume ([2]; 30 days post-trauma): 15.60±1.26 mm^3 | Cortical lesion volume smaller than vehicle ([2]; 30 days post-trauma): approximately 24% | Hippocampal lesion volume ([2]; 30 days post-trauma): 4.91±0.40 mm^3 | Hippocampal lesion volume smaller than vehicle ([2]; 30 days post-trauma): approximately 26% | Conc, whole brain [3]: 3.7±0.5 pmole/mg tissue | Conc, brain stem [3, 12]: 2.8±0.8 pmole/mg tissue | Conc, cerebellum [3, 12]: 2.4±0.4 pmole/mg tissue | Conc, cortex [3, 12]: 2.7±0.8 pmole/mg tissue | Conc, hippocampus [3, 12]: 3.1±0.8 pmole/mg tissue | Conc, plasma [3, 12]: 6200 ± 100 nM | Conc, striatum [3, 12]: 3.5±1.1 pmole/mg tissue | Surviving neurons with dendrites, contralateral cortex [4]: 7.53±0.59% | Surviving neurons with dendrites, lesioned cortex [4]: 2.86±0.63% | Brain AUC 0–∞, equivalent ([5]; assuming a density of 1 g/mL, repeated 25 mg/kg i.p. SB-3CT): 87.8 µM·min | t ½α, brain ([5]; repeated 25 mg/kg i.p. SB-3CT): 8.7 min | t ½α, plasma ([5]; repeated 25 mg/kg i.p. SB-3CT): 6.6 min | Brain concentration [5, 13]: 3.7±0.5 pmole/mg tissue | Plasma concentration [5, 14]: 6200 ± 100 nM | Brain concentration [5, 15]: 1.6±0.3 pmole/mg tissue | Plasma concentration [5, 15]: 2900 ± 300 nM | Brain concentration [5, 16]: 0.99±0.09 pmole/mg tissue | Plasma concentration [5, 16]: 760 ± 260 nM | Brain concentration [5, 17]: 0.19±0.05 pmole/mg tissue | Plasma concentration [5, 17]: 550 ± 80 nM | Brain concentration [5, 18]: 0.16±0.08 pmole/mg tissue | Plasma concentration [5, 18]: 220 ± 130 nM | Brain concentration [5, 19]: 0.049±0.013 pmole/mg tissue | Plasma concentration [5, 19]: 100 ± 40 nM | Brain concentration [5, 20]: 0.022±0.005 pmole/mg tissue | Barnes maze latency AUC over 10 trials (memory acquisition) vs vehicle ([6]; 5-day task started 18 days post-trauma): ameliorated cognitive deficits | Barnes maze latency and error numbers vs vehicle ([6]; last two days of the trials (days 22 and 23 after TBI)): significantly attenuated | Immunoreactivity of GFAP-stained astrocytes [7]: partially attenuated | Numbers of CD11b-positive microglial cells in lesioned cortex vs vehicle [7]: significantly reduced | AUC 0–last, brain [8]: 86.1 pmol·min/mg | AUC 0–last, plasma [8]: 130 µM·min | AUC 0–∞, brain [8]: 87.8 pmol·min/mg | AUC 0–∞, plasma [8]: 134 µM·min | t ½β (elimination half-life), brain [8]: 53 min | t ½β (elimination half-life), plasma [8]: 25 min | Brain AUC 0–∞ ([9]; following a single dose of SB-3CT): 122 pmol·min/mg | Elimination half-life ([9]; mouse, in vivo): 46 min | Reduction of motor deficits (beam-walking foot faults) vs vehicle ([10]; day 7 after TBI): more than 50% | Motor function recovery (beam-walking) ([10]; day 14 after TBI): almost-complete recovery

O=S(=O)(CC1CS1)c1ccc(Oc2ccc(O)cc2)cc1 (stereo not shown) [p-OH SB-3CT]
Ki (MMP-9 [11]): 160 nM | Conc, whole brain [3]: 0.14±0.04 pmole/mg tissue | Conc, brain stem [3, 12]: 0.13±0.03 pmole/mg tissue | Conc, cerebellum [3, 12]: 0.13±0.03 pmole/mg tissue | Conc, cortex [3, 12]: 0.16±0.05 pmole/mg tissue | Conc, hippocampus [3, 12]: 0.11±0.03 pmole/mg tissue | Conc, plasma [3, 12]: 120 ± 30 nM | Conc, striatum [3, 12]: 0.12±0.04 pmole/mg tissue | Ratio of concentration, brain stem to plasma [3, 12]: 1.1±0.4 | Ratio of concentration, cerebellum to plasma [3, 12]: 1.1±0.4 | Ratio of concentration, cortex to plasma [3, 12]: 1.3±0.5 | Ratio of concentration, hippocampus to plasma [3, 12]: 0.92±0.34 | Ratio of concentration, striatum to plasma [3, 12]: 1.0±0.4 | Ratio of concentration, whole brain to plasma [3, 12]: 1.2±0.4 | AUC 0–last, brain ([5]; repeated 25 mg/kg i.p. SB-3CT): 2.98 pmol·min/mg | AUC 0–last, plasma ([5]; repeated 25 mg/kg i.p. SB-3CT): 1.45 µM·min | AUC 0–∞, brain ([5]; repeated 25 mg/kg i.p. SB-3CT): 4.61 pmol·min/mg | t ½α, brain ([5]; repeated 25 mg/kg i.p. SB-3CT): 4.2 min | t ½α, plasma ([5]; repeated 25 mg/kg i.p. SB-3CT): 3.4 min | t ½β (elimination half-life), brain ([5]; repeated 25 mg/kg i.p. SB-3CT): 187 min | Brain concentration [5, 13]: 0.14±0.04 pmole/mg tissue | Plasma concentration [5, 14]: 120 ± 30 nM | Brain concentration [5, 15]: 0.026±0.005 pmole/mg tissue | Plasma concentration [5, 15]: 16 ± 4 nM | Brain concentration [5, 16]: 0.015±0.004 pmole/mg tissue | Plasma concentration [5, 16]: 6 ± 1 nM | Brain concentration [5, 17]: 0.011±0.007 pmole/mg tissue | Brain concentration [5, 18]: 0.0081±0.0022 pmole/mg tissue | Brain concentration [5, 19]: 0.0076±0.0009 pmole/mg tissue | Brain concentration [5, 20]: 0.0060±0.0004 pmole/mg tissue | Brain AUC /Plasma AUC ([5]; ratio of AUC 0–last, repeated 25 mg/kg i.p. SB-3CT): 2.1
